Here are results for 17 molecules from PMC3615092, “Identification, Design and Bio-Evaluation of Novel Hsp90 Inhibitors by Ligand-Based Virtual Screening” (PLoS ONE, 2013).

In test [1] the target is T1, Hsp90 (Homo sapiens, UniProt P07900).
T1 construct: The region encoding full-length Hsp90 was subcloned into pET28a; inferred from the pET28a vector and Ni-NTA purification; made in house; host or cells: E. coli
Briefly: Malachite green assay of Hsp90 ATPase activity. The test is classed as biochemical. Conditions: for inhibition at 40 µM: read-out: Inhibition rate (% in 40 μM); for IC50: by malachite green assay. How it is done:
The region encoding full-length Hsp90 was subcloned into pET28a. Protein expression in E. coli cells were induced with 0.5 mM IPTG. Cells were harvested after 20h of growth at 16°C and then disrupted by sonication. The soluble lysate was clarified by centrifugation and applied to a Ni^2+-nitrilo-triacetic acid (NTA) agarose column in a buffer (50 mM Tris-Cl, 300 mM NaCl, 10 mM Imidazole, 10% [v/v] Glycerol, 10 mM PMSF, 10 mM DTT). Hsp90 Protein was eluted with a linear gradient of 20–1000 mM imidazole. Hsp90 was identified by SDS-PAGE, and the high concentrated fraction was dialyzed against ATPase buffer (20 mM Tris-Cl, pH 7.5; 6 mM MgCl2; 20 mM KCl) and then aliquoted, frozen in liquid nitrogen, stored at −80°C.
The test compounds were diluted from mother plates (10 mM in 100% (v/v) DMSO) into daughter plates (200 μM in 2.0% (v/v) DMSO); 5 μL of test compound solution was added to each well (equivalent to a final concentration of 40 μM) of the 96-well assay plate. The first and last rows of the 96-well plate contained the appropriate concentration of DMSO were used as blank control. ATP was dissolved in the assay buffer to give a stock concentration of 2.5 mM and stored at room temperature. A 10 μL aliquot of ATP solution was added to each well to give a final assay concentration of 1 mM. Before the usage, Hsp90 protein was thawed on ice and suspended in chilled assay buffer to a stock concentration of 0.45 mg/mL, and the solution was kept on ice. The incubation was started by adding 10 μL of the stock Hsp90 to each well (except for the background wells which received 10 μL of assay buffer), giving a final assay volume of 25 μL. The plates were shaken for approximately 2 min and incubated for 3 h at 37°C.
The assay procedures were based on the literatures [33]–[35]. […] The reagent is initially dark brown, but on standing for ∼2 h at room temperature changes to a golden yellow and is ready for use. The assay buffer was 100 mM Tris–HCl, 20 mM KCl, 6 mM MgCl2, pH 7.4.
To stop the ATPase reactions, 80 μL of the malachite green reagent was added to each well.

Test [2] deals with T1, Hsp90. The test can be described thus: ATP hydrolysis inhibition, ADP Hunter Plus (ADP fluorescence) assay. In kind it is biochemical. The conditions noted are these: by ADP fluorescence assay. On the procedure:
The first and last rows of the 96-well plate contained the appropriate concentration of DMSO were used as blank control. ATP was dissolved in the assay buffer to give a stock concentration of 2.5 mM and stored at room temperature. A 10 μL aliquot of ATP solution was added to each well to give a final assay concentration of 1 mM. Before the usage, Hsp90 protein was thawed on ice and suspended in chilled assay buffer to a stock concentration of 0.45 mg/mL, and the solution was kept on ice. […] The plates were shaken for approximately 2 min and incubated for 3 h at 37°C. The Discover RX ADP Hunter^TM Plus Assay kit (Discoverx, Fremont, CA) was used following the manufacturer's instructions. ATPase reactions were carried out after 3 h at 37°C temperature in presence of different concentrations of compounds. ADP generation was measured using Varioskan multimode microplate spectrophotometer (540 nm excitation and 620 nm emission). […] The background reaction rate was measured in a reaction lacking enzyme or substrate and subtracted from the experimental rates.

In the next test the target is T2, Hsp70 (Homo sapiens, UniProt P0DMV8).
T2 construct: purchased Enzo Life science ALX-201-214-C025
The test can be described thus: Hsp70 ATPase activity assay (ADP Hunter Plus). In kind it is biochemical. The conditions noted are these: for IC50: ADP Hunter Plus assay; for selectivity HSP90 over HSP70: ratio of IC50 HSP70 / HSP90, ADP fluorescence assay. From the text:
The following materials were used for the biological evaluation: The PET-28a HSP90 expression vector was constructed. The Ni^2+-nitrilo-triacetic acid (NTA) agarose was purchased from General Electric (USA). […] Isopropyl-1-thio-d-galactopyranoside (IPTG) was purchased from Sigma (St. Lousi. MO). Antibodies of β-Actin, Hsp70, Hsp90, c-Raf, Akt, Src, Phospho-Src, ERK and Her-2 were purchased from Cell Signaling Technology (Danvers, MA). Anti-p-Akt(S473) was purchased from Signalway Antibody (Baltimore, MD). HIF-1α antibody was purchased from R&D systems. The stock solution of Hsp90 was prepared in a 20 mM Tris-Cl buffer with a pH 7.4, and concentration was fixed at 5.0 μM. […] The screened out compounds were purchased from SPECS and dissolved in DMSO (Sigma, St. Louis, MO) to make a final concentration of 10^−2 mol/L and were stored at −20°C. […] The water used in the experiments was thrice-distilled and all other materials were of analytical reagent grade.
Hsp70 ATPase activity was measured using Discover RX ADP Hunter^TM Plus Assay kit assay as descripted in the manufacturer's instructions. Breifly, Hsp70 (3 μM) was incubated with 1 mM ATP in 100 mM Tris pH 7.4 at 37°C for 3 h in the presence or absence of various concentrations of test compounds. ADP generation was measured using Varioskan multimode microplate spectrophotometer (540 nm excitation and 620 nm emission). Fluorescence intensity values measured for Hsp70 without any testing compound was assumed as 100% of enzyme activity. The background reaction rate was measured in a reaction lacking enzyme or substrate and subtracted from the experimental rates.

In a further test the test system is A549. The test can be described thus: Anti-proliferation MTT assay. The test is classed as cell-based. On the procedure: (§1) Cell viabilities were measured by a colorimetric assay using 3-(4, 5-dimethylthiaz-ol-2-yl)-2,5-diphenyltetrazoliumbromide (MTT, Sigma, Ltd.) as described previously. Experiments were carried out in triplicate in a parallel manner for each concentration of target compounds and the results were presented as mean ± SE. Control cells were given only culture media. After incubation for 48 h, absorbance (A) was measured at 570 nm. Survival ratio (%) was calculated using the following equation: survival ratio (%) = (Atreatment/Acontrol) × 100%.

The subject of the next test is HCT116. Briefly: Anti-proliferation MTT assay. The test is classed as cell-based. On the procedure:
as §1

A further test relates to HepG2. The test can be described thus: Anti-proliferation MTT assay. The test is classed as cell-based. How it is done:
as §1

Another test has as its system MCF-7. Briefly: Anti-proliferation MTT assay. The test is classed as cell-based. On the procedure:
as §1

The next test concerns MDA-MB-231. Briefly: Anti-proliferation MTT assay. In kind it is cell-based. How it is done: as §1
For the next test, the system named is SK-BR-3. The test can be described thus: Anti-proliferation MTT assay. The test is classed as cell-based. On the procedure:
as §1

[3] abbreviates: 40 μM, colorimetric assay for inorganic phosphate.
Where [4] appears, read: colorimetric assay for inorganic phosphate, 40 μM.

Like-named read-outs stand apart in the source and are kept apart here.

T2 sequence (P0DMV8 whole entry): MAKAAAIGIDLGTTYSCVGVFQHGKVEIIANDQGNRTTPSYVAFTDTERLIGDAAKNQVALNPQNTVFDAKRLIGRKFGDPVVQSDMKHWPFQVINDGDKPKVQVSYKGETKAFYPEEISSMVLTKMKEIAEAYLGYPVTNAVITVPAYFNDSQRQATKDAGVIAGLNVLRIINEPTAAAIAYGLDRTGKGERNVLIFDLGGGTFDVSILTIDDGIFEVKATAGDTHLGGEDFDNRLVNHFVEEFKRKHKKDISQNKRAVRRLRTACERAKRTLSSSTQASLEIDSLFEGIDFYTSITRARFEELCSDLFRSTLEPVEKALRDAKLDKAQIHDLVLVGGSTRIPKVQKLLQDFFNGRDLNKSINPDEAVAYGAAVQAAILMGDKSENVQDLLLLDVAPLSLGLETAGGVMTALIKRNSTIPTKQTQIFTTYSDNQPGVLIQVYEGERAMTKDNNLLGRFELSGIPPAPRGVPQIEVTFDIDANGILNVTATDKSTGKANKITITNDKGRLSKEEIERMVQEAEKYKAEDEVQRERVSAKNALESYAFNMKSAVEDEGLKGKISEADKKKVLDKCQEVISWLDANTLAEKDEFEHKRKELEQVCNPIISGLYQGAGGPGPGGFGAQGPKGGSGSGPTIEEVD

Consider `CCCCCOc1cccc(C2C(C(=O)c3cccs3)=C(O)C(=O)N2CCN2CCOCC2)c1` (stereo not shown) [Compound S6], for which the inhibition at 40 µM on Hsp90 [1] (setting [3]) was -7.53%.

For the molecule `COCCN1C(=O)C(O)=C(C(=O)c2ccc3c(c2)CC(C)O3)C1c1cccc(OC)c1` (stereo not shown) [Compound S17], the inhibition at 40 µM at Hsp90 [1] (setting [3]) turned out to be 48.8%. Also, the “Hsp90 inhibition activity (in words)” value on Hsp90 [1] (setting [4]) is “moderate”.

As to `CCCOc1ccc(C(=O)C2=C(O)C(=O)N(Cc3cccnc3)C2c2ccccc2)cc1` (stereo not shown) [Compound S5], at Hsp90 [1] (setting [3]), the inhibition at 40 µM is -14.5%.

As to `Cc1ccc(S(=O)(=O)N2CCN(CC(O)COc3ccc(-c4ccccc4)cc3)CC2)cc1C` (stereo not shown) [Compound S14], the inhibition at 40 µM on Hsp90 [1] (setting [3]) was 47.5%. In addition, the “Hsp90 inhibition activity (in words)” value on Hsp90 [1] (setting [4]) is listed as “moderate”.

Take `COc1ccc(CNC(=O)CSc2nc3ccc(N)cc3s2)cc1` [Compound S3]: the inhibition at 40 µM at Hsp90 [1] (setting [3]) is -11.6%.

As for `COc1ccc(-c2csc3ncn(CC(=O)Nc4ccc(C)cc4C)c(=O)c23)cc1OC` [Compound S9], the inhibition at 40 µM at Hsp90 [1] (setting [3]) was -47.8%.

Take `CCOC(=O)C1=C(Nc2ccc(OC)cc2)S/C(=C\c2ccc[nH]2)C1=O` [Compound S12]: the inhibition at 40 µM on Hsp90 [1] (setting [3]) was found to be 12.6%.

Take `O=C(NNC1CC(=O)N(c2ccc(Br)cc2)C1=O)c1cccnc1` (stereo not shown) [Compound S7]: at Hsp90 [1] (setting [3]), the inhibition at 40 µM is -35.1%.

Take `COc1cccc(CNc2nc(SC)ncc2CO)c1` [Compound S16]: at Hsp90 [1] (setting [3]), the inhibition at 40 µM is -6.22%.

On to `CC(C)c1cc(C(=O)N2Cc3ccc(CN4CCN(C)CC4)cc3C2)c(O)cc1O` [AT13387], for which the values for the half-inhibitory concentration (IC50) at Hsp90 [1], at Hsp90 [2] and at Hsp70 were 370 ± 50 nM, 340 ± 80 nM and 16300 ± 1200 nM, respectively. Moreover, the “selectivity HSP90 over HSP70” value on Hsp70 is on record as “over 47 times”.

On to `CCOc1ccc(-c2csc3ncn(CC(=O)Nc4cc(C)ccc4C)c(=O)c23)cc1` [Compound S10], for which the inhibition at 40 µM at Hsp90 [1] (setting [3]) stood at 36%.

With `CO[C@H]1/C=C\C=C(/C)C(=O)NC2=CC(=O)C(NCCN(C)C)=C(C[C@@H](C)C[C@H](OC)[C@H](O)[C@@H](C)/C=C(\C)[C@@H]1OC(N)=O)C2=O` [Compound 17-DMAG, 17-Dimethylamino-ethylamino-17-demethoxygeldanamycin], the “Inhibition rate (% in 40 μM)” value at Hsp90 [1] (setting [3]) is 90%. Moreover, the half-maximal inhibitory concentration (IC50) amounted to 57 nM with A549 (48 h); 260 nM in the test on HCT116 (48 h); 490 nM in the test on HepG2 (48 h); 37 nM with MCF-7 (48 h); 48 nM in the test on MDA-MB-231 (48 h); 1210 nM in the test on SK-BR-3 (48 h).

On to `CN(C)S(=O)(=O)N1CCN(CC(O)COc2ccc3cc(Br)ccc3c2)CC1` (stereo not shown) [Compound S1], for which the inhibition at 40 µM on Hsp90 [1] (setting [3]) is over 50%. Moreover, the IC50 against Hsp90 [1] is 2440 ± 330 nM; on Hsp90 [2], 1610 nM; at Hsp70, 28200 ± 2270 nM; in the test on A549 (Homo sapiens, A549, 48 h) it was 25900 nM; in the test on HCT116 (Homo sapiens, HCT-116, 48 h), 4660 nM; with HepG2 (Homo sapiens, HepG2, 48 h), 2270 nM. Further, the IC50 in the test on MCF-7 (Homo sapiens, MCF7, 48 h) was 3790 nM; in the test on MDA-MB-231 (Homo sapiens, MDA-MB-231, 48 h) it was 2270 nM; in the test with SK-BR-3 (Homo sapiens, SK-BR-3, 48 h) it was 15800 nM. Further, the “selectivity HSP90 over HSP70” value at Hsp70 is reported as “over 15 times”.

Consider `Cc1cccc(OCCn2c(SCC(O)CO)nc3ccccc32)c1` (stereo not shown) [Compound S15], for which, at Hsp90 [1] (setting [3]), the inhibition at 40 µM came to 18.9%.

With `COCCCN1C(=O)C(O)=C(C(=O)c2ccc(OC(C)C)c(C)c2)C1c1cccnc1` (stereo not shown) [Compound S4], the inhibition at 40 µM on Hsp90 [1] (setting [3]) stood at 48.2%. Besides, the “Hsp90 inhibition activity (in words)” value at Hsp90 [1] (setting [4]) is recorded as “moderate”.

As for `CCOC(=O)c1c(C)n(CCOc2cccc3ccccc23)c2ccc(O)cc12` [Compound S2], the inhibition at 40 µM at Hsp90 [1] was -10.2%.

As for `COc1ccc(-c2csc3ncn(CC(=O)NC4CCCCC4)c(=O)c23)cc1OC` [Compound S11], at Hsp90 [1] (setting [3]), the inhibition at 40 µM came out at 42.8%. Further, on Hsp90 [1] (setting [4]), the “Hsp90 inhibition activity (in words)” value is on record as “moderate”.
